Earlier results as cited in patent US20070122482A1, “Method for preparing modified release pharmaceutical compositions” (priority 2003, published 2007).
Structures can show the parent of a compound that is named as a salt. Where two headings read alike, the source gives them in different places.

What was measured:
[1] = for Solubility In Water: Table 2, Poorly-Soluble Drugs with Low Bioavailability; for Solubility in water: Table 1, Poorly-Soluble Drug Candidates

| Molecule | Solubility in water [1] | other results |
| --- | --- | --- |
| C[C@]12CC[C@H]3[C@@H](CCC4=CC(=O)CC[C@@]43C)[C@@H]1CC[C@@H]2O [Testosterone] |  | Solubility In Water [1]: Insoluble; Bioavailability (in words) (Table 2): Low |
| CC1=C(/C=C/C(C)=C/C=C/C(C)=C\C(=O)O)C(C)(C)CCC1 [Isotretinoin] | Insoluble |  |
| OCCN1CCN(CCCN2c3ccccc3Sc3ccc(C(F)(F)F)cc32)CC1 [Fluphenazine] |  | Solubility In Water [1]: Insoluble |
| Cc1ccc(-c2nc3ccc(C)cn3c2CC(=O)N(C)C)cc1 [Zolpidem] | Sparingly |  |
| CN1CCCC(n2nc(Cc3ccc(Cl)cc3)c3ccccc3c2=O)CC1 (stereo not shown) [Azelastine] | Insoluble |  |
| COc1cc2nc(N3CCN(C(=O)C4COc5ccccc5O4)CC3)nc(N)c2cc1OC (stereo not shown) [Doxazosin] | Slightly |  |
| O=C(O)Cc1ccccc1Nc1c(Cl)cccc1Cl [Diclofenac sodium] | Sparingly |  |
| CC1CC(OC(=O)C(O)c2ccccc2)CC(C)(C)C1 (stereo not shown) [Cyclandelate] |  | Solubility In Water [1]: Insoluble; Bioavailability (in words) (Table 2): Low |
| CN1C(C(=O)Nc2ccccn2)=C(O)c2ccccc2S1(=O)=O [Piroxicam] | Sparingly |  |
| CCCC1O[C@@H]2C[C@H]3[C@@H]4CCC5=CC(=O)C=C[C@]5(C)[C@H]4[C@@H](O)C[C@]3(C)[C@]2(C(=O)CO)O1 (stereo partly shown) [Budesonide] | Sparingly | Solubility In Water [1]: Sparingly soluble; Bioavailability (Table 2): Low (˜15%) |
| Cc1c(OCC(F)(F)F)ccnc1C[S+]([O-])c1nc2ccccc2[nH]1 (stereo not shown) [Lansoprazole] | Insoluble |  |
| CO/N=C(\C(=O)N[C@@H]1C(=O)N2C(C(=O)O)=C(COC(C)=O)CS[C@H]12)c1csc(N)n1 [Cefotaxime] | Sparingly |  |
| C[C@@](Cc1ccc(O)c(O)c1)(NN)C(=O)O [Carbidopa] | Slightly |  |
| COc1ccc(CCN2CCC(Nc3nc4ccccc4n3Cc3ccc(F)cc3)CC2)cc1 [Astemizole] | Insoluble | Solubility In Water [1]: Insoluble; Bioavailability (in words) (Table 2): Low-moderate |
| Cholestyramine | Insoluble |  |
| COc1ccc2[nH]c([S+]([O-])Cc3ncc(C)c(OC)c3C)nc2c1 (stereo not shown) [Omeprazole] | Slightly |  |
| OCCN1CCN(CCCN2c3ccccc3Sc3ccc(Cl)cc32)CC1 [Perphenazine] |  | Bioavailability (in words) (Table 2): Low |
| CCc1cccc2c3c([nH]c12)C(CC)(CC(=O)O)OCC3 (stereo not shown) [Etodolac] | Insoluble |  |
| CO[C@]12C[C@@H](COC(=O)c3cncc(Br)c3)CN(C)[C@@H]1Cc1cn(C)c3cccc2c13 [Nicergoline] | Insoluble |  |
| CC[C@H]1OC(=O)[C@H](C)[C@@H](O[C@H]2C[C@@](C)(OC)[C@@H](O)[C@H](C)O2)[C@H](C)[C@@H](O[C@@H]2O[C@H](C)C[C@H](N(C)C)[C@H]2O)[C@](C)(OC)C[C@@H](C)C(=O)[C@H](C)[C@@H](O)[C@]1(C)O [Clarithromycin] | Insoluble |  |
| CC(C(=O)O)c1ccc(-c2ccccc2)c(F)c1 (stereo not shown) [Flurbiprofen] | Slightly |  |
| CC(=O)OC[C@H]1O[C@@H]([S-])[C@H](OC(C)=O)[C@@H](OC(C)=O)[C@@H]1OC(C)=O.CCP(CC)CC.[Au+] [Auranofin] |  | Solubility In Water [1]: Slightly soluble; Bioavailability (in vivo): Low (15-25%) |

| Molecule | Solubility in water [1] | other results |
| --- | --- | --- |
| Cc1ncc2n1-c1ccc(Cl)cc1C(c1ccccc1F)=NC2 [Midazolam] | Insoluble |  |
| COCCCC/C(=N\OCCN)c1ccc(C(F)(F)F)cc1 [Fluvoxamine] | Sparingly |  |
| CCOC(=O)C1=C(C)NC(C)=C(C(=O)OC)C1c1cccc(Cl)c1Cl (stereo not shown) [Felodipine] | Insoluble | Solubility In Water [1]: Insoluble |
| CCCCCc1cc(O)c2c(c1)OC(C)(C)[C@@H]1CCC(C)=C[C@@H]21 [Dronabinol] |  | Solubility In Water [1]: Insoluble |
| Cc1cccc(Nc2ccccc2C(=O)O)c1C [Mefenamic acid] | Slightly |  |
| Cc1nnc2n1-c1ccc(Cl)cc1C(c1ccccc1)=NC2 [Alprazolam] | Insoluble |  |
| CC(CCc1ccc(O)cc1)NCCc1ccc(O)c(O)c1 (stereo not shown) [Dobutamine] | Sparingly |  |
| NC(=O)N1c2ccccc2C=Cc2ccccc21 [Carbamazepine] | Insoluble |  |
| COC(=O)C1=C(C)NC(C)=C(C(=O)OC(C)C)C1c1cccc2nonc12 (stereo not shown) [Isradipine] | Insoluble | Solubility In Water [1]: Insoluble |
| Nc1ccc(O)c(C(=O)O)c1 [Mesalamine] |  | Bioavailability (Table 2): Low (˜20%) |
| COc1ccc2cc(CCC(C)=O)ccc2c1 [Nabumetone] | Insoluble | Solubility In Water [1]: Insoluble |
| OC(Cn1cncn1)(Cn1cncn1)c1ccc(F)cc1F [Fluconazole] | Slightly |  |
| CC(C)(C)c1ccc(C(O)CCCN2CCC(C(O)(c3ccccc3)c3ccccc3)CC2)cc1 (stereo not shown) [Terfenadine] | Slightly |  |
| COc1cc(N)c(Cl)cc1C(=O)NC1CCN(CCCOc2ccc(F)cc2)CC1OC (stereo not shown) [Cisapride] | Insoluble | Solubility In Water [1]: Insoluble |
| COc1cc([C@@H]2c3cc4c(cc3[C@@H](O[C@@H]3O[C@@H]5CO[C@@H](C)O[C@H]5[C@H](O)[C@H]3O)[C@H]3COC(=O)[C@H]23)OCO4)cc(OC)c1O [Etoposide] | Very Slightly |  |
| COc1ccc(Cl)cc1C(=O)NCCc1ccc(S(=O)(=O)NC(=O)NC2CCCCC2)cc1 [Glyburide] | Sparingly |  |
| CCOC(=O)C1=C(COCCN)NC(C)=C(C(=O)OC)C1c1ccccc1Cl (stereo not shown) [Amlodipine] | Slightly |  |
| CC(=O)N1CCN(c2ccc(OCC3COC(Cn4ccnc4)(c4ccc(Cl)cc4Cl)O3)cc2)CC1 (stereo not shown) [Ketoconazole] | Insoluble |  |
| O=[N+]([O-])O[C@H]1CO[C@H]2[C@@H]1OC[C@H]2O[N+](=O)[O-] [Isosorbide dinitrate] | Sparingly | Solubility In Water [1]: Sparingly soluble |
| CN1CCN(C2=Nc3cc(Cl)ccc3Nc3ccccc32)CC1 [Clozapine] | Slightly |  |
| C#C[C@]1(O)CC[C@H]2[C@@H]3CCC4=Cc5oncc5C[C@]4(C)[C@H]3CC[C@@]21C [Danazol] |  | Bioavailability (in words) (Table 2): Low |
| CC(C)(C)NC(=O)[C@@H]1C[C@@H]2CCCC[C@@H]2CN1C[C@@H](O)[C@H](Cc1ccccc1)NC(=O)[C@H](CC(N)=O)NC(=O)c1ccc2ccccc2n1 [Saquinavir] | Practically insoluble |  |

| Molecule | Solubility in water [1] | other results |
| --- | --- | --- |
| CN1CCC[C@@H]1CCO[C@](C)(c1ccccc1)c1ccc(Cl)cc1 [Clemastine fumarate] |  | Solubility In Water [1]: Slightly soluble; Bioavailability (Table 2): Low (˜39%) |
| CC[C@H](C)C(=O)O[C@H]1C[C@@H](C)C=C2C=C[C@H](C)[C@H](CC[C@@H]3C[C@@H](O)CC(=O)O3)[C@H]21 [Lovastatin] | Insoluble | Solubility In Water [1]: Insoluble |
| CC(=O)S[C@@H]1CC2=CC(=O)CC[C@]2(C)[C@H]2CC[C@@]3(C)[C@@H](CC[C@@]34CCC(=O)O4)[C@H]12 [Spironolactone] |  | Solubility In Water [1]: Insoluble |
| C[C@@H]1C[C@H]2[C@@H]3CCC4=CC(=O)C=C[C@]4(C)[C@@]3(Cl)[C@@H](O)C[C@]2(C)[C@@]1(O)C(=O)CCl [Mometasone] | Insoluble |  |
| CCOC(=O)[C@H](CCc1ccccc1)N[C@@H](C)C(=O)N1CCC[C@H]1C(=O)O [Enalapril] | Sparingly |  |
| CCn1cc(C(=O)O)c(=O)c2cc(F)c(N3CCNCC3)cc21 [Norfloxacin] | Slightly | Solubility In Water [1]: Slightly soluble |
| OC(CCN1CCCCC1)(c1ccccc1)C1CC2C=CC1C2 (stereo not shown) [Biperiden] |  | Solubility In Water [1]: Sparingly soluble |
| CCOC(=O)[C@H](CCc1ccccc1)N[C@@H](C)C(=O)N1Cc2ccccc2C[C@H]1C(=O)O [Quinapril] | Insoluble |  |
| OCCN(CCO)c1nc(N2CCCCC2)c2nc(N(CCO)CCO)nc(N3CCCCC3)c2n1 [Dipyridamole] | Slightly |  |
| Nc1nnc(-c2cccc(Cl)c2Cl)c(N)n1 [Lamotrigine] | Slightly |  |
| CC(=O)O[C@H]1C(=O)[C@@]2(C)[C@H]([C@H](OC(=O)c3ccccc3)[C@]3(O)C[C@H](OC(=O)[C@H](O)[C@@H](NC(=O)c4ccccc4)c4ccccc4)C(C)=C1C3(C)C)[C@]1(OC(C)=O)CO[C@@H]1C[C@@H]2O [Paclitaxel] | Insoluble |  |
| CC(C)Cc1ccc(C(C)C(=O)O)cc1 (stereo not shown) [Ibuprofen] | Insoluble |  |
| CC(C)(C)NC(=O)[C@H]1CC[C@H]2[C@@H]3CC[C@H]4NC(=O)C=C[C@]4(C)[C@H]3CC[C@]12C [Finasteride] | Insoluble |  |
| NC(N)=Nc1nc(CSCCC(N)=NS(N)(=O)=O)cs1 [Famotidine] | Slightly | Solubility In Water [1]: Slightly soluble |
| CN(C/C=C/C#CC(C)(C)C)Cc1cccc2ccccc12 [Terbinafine] | Slightly |  |
| CCCC(CCC)C(=O)O [Divalproex] | Slightly |  |
| CN[C@H]1CC[C@@H](c2ccc(Cl)c(Cl)c2)c2ccccc21 [Sertraline] | Slightly | Solubility In Water [1]: Slightly soluble |
| CCOC(=O)[C@H](CCc1ccccc1)N[C@@H](C)C(=O)N1[C@H](C(=O)O)C[C@@H]2CCC[C@@H]21 [Ramipril] | Insoluble |  |
| O=C1NC(=O)C(c2ccccc2)(c2ccccc2)N1 [Phenytoin] | Insoluble |  |
| C=CCC1(CC(C)C)C(=O)NC(=O)NC1=O [Butalbital] | Insoluble |  |
| Cn1cnc([N+](=O)[O-])c1Sc1ncnc2nc[nH]c12 [Azathioprine] | Insoluble |  |
